The numbers were not newly measured in US20060141037A1, “Bilayer tablets of oxcarbazepine for controlled delivery and a process of preparation thereof” (J. B. Chemicals & Pharmaceuticals Ltd., priority 2004, published 2006), which cites them from elsewhere.

One series relates to animal models. The settings on record: comparable to that of carbamazepine and phenytoin.
Series [1] concerns voltage-sensitive sodium channels. The settings on record: in vitro electrophysiological studies.

On to `NC(=O)N1c2ccccc2CC(O)c2ccccc21` (centres unmarked) [MHD, 10,11-dihydro-10-hydro-carbamazepine], for which the “antiepileptic activity in animal models” value with animal models is “potent antiepileptic activity”. Also, the “effect on voltage-sensitive sodium channels” value in series [1] is on record as “blockade of voltage-sensitive sodium channels”.

Turning to `NC(=O)N1c2ccccc2CC(=O)c2ccccc21` [Oxcarbazepine, 10,11-dihydro-10-oxo-5H-dibenz[b,f]azepine-5-carboxamide], the solubility in water result is recorded as “practically insoluble in water”. The “antiepileptic activity in animal models” value in the series with animal models was “potent antiepileptic activity”. The “effect on voltage-sensitive sodium channels” value in series [1] is “blockade of voltage-sensitive sodium channels”.
